Experimental data published in US9845326B2, “Substituted 3,4-dihydropyrrolo[1,2-A]pyrazines as beta-secretase (BACE) inhibitors” (priority 2011, dated 2017).

Key:
Aβ42 = assay: Cellular αlisa assay in SKNBE2 cells, Aβ42; assay type: cell-based, human; conditions: SKNBE2 cells expressing hAPP695, 18 hours incubation; for IC50: Homo sapiens, SKNBE2, 18 h, read-out: Cellular αlisa assay in SKNBE2 cells Aβ42 pIC50 (converted)
Method: (§1) In two αlisa assays the levels of Aβtotal and Aβ42 produced and secreted into the medium of human neuroblastoma SKNBE2 cells are quantified. The assay is based on the human neuroblastoma SKNBE2 expressing the wild type Amyloid Precursor Protein (hAPP695). The compounds are diluted and added to these cells, incubated for 18 hours and then measurements of Aβ42 and Aβtotal are taken. Aβtotal and Aβ42 are measured by sandwich αlisa. αlisa is a sandwich assay using biotinylated antibody AbN/25 attached to streptavidin coated beads and antibody Ab4G8 or cAb42/26 conjugated acceptor beads for the detection of Aβtotal and Aβ42 respectively. In the presence of Aβtotal or Aβ42, the beads come into close proximity. The excitation of the Donor beads provokes the release of singlet oxygen molecules that triggers a cascade of energy transfer in the Acceptor beads, resulting in light emission. Light emission is measured after 1 hour incubation (excitation at […] and emission at 615 nm).
(§2) From this an […] value (inhibitory concentration causing 50% inhibition of activity) can be obtained.

Aβtotal = assay: Cellular αlisa assay in SKNBE2 cells, Aβtotal; assay type: cell-based, human; conditions: SKNBE2 cells expressing hAPP695, 18 hours incubation; for IC50: Homo sapiens, SKNBE2, 18 h, read-out: Cellular αlisa assay in SKNBE2 cells Aβtotal pIC50 (converted)
Method: as §1, §2

BACE1 = BACE1 (Homo sapiens, UniProt P56817); assay: Biochemical FRET based assay; conditions: Biochemical FRET based assay pIC50, recombinant BACE1 1 μg/ml, 120 min, room temperature, pH 5.0
Chain of BACE1 (P56817 46-501): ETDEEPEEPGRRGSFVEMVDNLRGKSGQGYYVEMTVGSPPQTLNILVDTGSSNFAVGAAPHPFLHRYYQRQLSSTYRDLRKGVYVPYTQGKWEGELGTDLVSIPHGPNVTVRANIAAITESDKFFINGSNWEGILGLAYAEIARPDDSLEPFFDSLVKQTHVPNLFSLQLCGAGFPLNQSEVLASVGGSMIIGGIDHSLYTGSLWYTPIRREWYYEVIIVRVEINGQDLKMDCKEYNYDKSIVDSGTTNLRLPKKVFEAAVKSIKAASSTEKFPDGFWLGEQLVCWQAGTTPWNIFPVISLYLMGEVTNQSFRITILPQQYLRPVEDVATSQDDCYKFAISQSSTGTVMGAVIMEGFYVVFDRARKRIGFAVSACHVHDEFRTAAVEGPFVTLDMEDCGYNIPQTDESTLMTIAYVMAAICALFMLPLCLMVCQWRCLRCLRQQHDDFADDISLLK
Text: This assay is a Fluorescence Resonance Energy Transfer Assay (FRET) based assay. The substrate for this assay is an APP derived 13 amino acids peptide that contains the ‘Swedish’ Lys-Met/Asn-Leu mutation of the amyloid precursor protein (APP) β-secretase cleavage site. This substrate also contains two fluorophores: (7-methoxy-coumarin-4-yl) acetic acid (Mca) is a fluorescent donor with excitation wavelength at 320 nm and emission at 405 nm and 2,4-Dinitrophenyl (Dnp) is a proprietary quencher acceptor. […] Upon cleavage by BACE1, the fluorophore Mca is separated from the quenching group Dnp, restoring the full fluorescence yield of the donor. The increase in fluorescence is linearly related to the rate of proteolysis (Koike H et al. J. Biochem. 1999, 126, 235-242).
Briefly in a 384-well format recombinant BACE1 protein in a final concentration of 1 μg/ml is incubated for 120 min at room temperature with 10 μm substrate in incubation buffer (40 mM Citrate buffer pH 5.0, 0.04% PEG, 4% DMSO) in the absence or presence of compound. Next the amount of proteolysis is directly measured by fluorescence measurement at T=0 and T=120 (excitation at 320 nm and emission at 405 nm). Results are expressed in RFU, as difference between T120 and T0
From this an IC50 value (inhibitory concentration causing 50% inhibition of activity) can be obtained.

SMILES: COCC1(c2cc(NC(=O)c3ccc(F)cn3)ccc2F)Cn2cc(C(F)(F)F)cc2C(N)=N1 (stereo not drawn) [Compound 29]
- Cellular αlisa assay in SKNBE2 cells Aβ42 pIC50 (Aβ42): 6.32
- Cellular αlisa assay in SKNBE2 cells Aβtotal pIC50 (Aβtotal): 6.33
- IC50 (BACE1): 2040 nM

SMILES: Cc1nc(C(=O)Nc2ccc(F)c([C@]3(C)Cn4cc(C(F)(F)F)cc4C(N)=N3)c2)co1 [Compound 21]
- Cellular αlisa assay in SKNBE2 cells Aβ42 pIC50 (Aβ42): 7.83
- Cellular αlisa assay in SKNBE2 cells Aβtotal pIC50 (Aβtotal): 7.79
- IC50 (BACE1): 95.5 nM

SMILES: COCC1(c2cc(NC(=O)c3cnc(OC)cn3)ccc2F)Cn2cc(C(F)(F)F)cc2C(N)=N1 (stereo not drawn) [Compound 28]
- Cellular αlisa assay in SKNBE2 cells Aβ42 pIC50 (Aβ42): 6.53
- Cellular αlisa assay in SKNBE2 cells Aβtotal pIC50 (Aβtotal): 6.52
- IC50 (BACE1): 1910 nM

SMILES: COc1cnc(C(=O)Nc2ccc(F)c(C3(C(F)F)Cn4cccc4C(N)=N3)c2)cn1 (single isomer, unassigned) [Compound 12]
- Cellular αlisa assay in SKNBE2 cells Aβ42 pIC50 (Aβ42): 7.85
- Cellular αlisa assay in SKNBE2 cells Aβtotal pIC50 (Aβtotal): 7.9
- IC50 (BACE1): 37.2 nM

SMILES: COCC1(c2cc(NC(=O)c3ccn(C(F)F)n3)ccc2F)Cn2cc(C(F)(F)F)cc2C(N)=N1 (stereo not drawn) [Compound 26]
- IC50 (Aβ42): 501 nM
- IC50 (Aβtotal): 537 nM
- IC50 (BACE1): 2880 nM

SMILES: NC1=NC(c2cc(NC(=O)c3ccc(F)cn3)ccc2F)(C(F)F)Cn2cccc21 (stereo not drawn) [Compound 14]
- IC50 (Aβ42): 37.2 nM
- IC50 (Aβtotal): 35.5 nM
- IC50 (BACE1): 174 nM

SMILES: C[C@@]1(c2cc(NC(=O)c3ncc(C#N)cc3F)ccc2F)Cn2cc(C(F)(F)F)cc2C(N)=N1 [Compound 15]
- IC50 (Aβ42): 9.33 nM
- IC50 (Aβtotal): 8.91 nM
- IC50 (BACE1): 36.3 nM

SMILES: Cc1nc(C(=O)Nc2ccc(F)c([C@]3(C)Cn4cc(F)cc4C(N)=N3)c2)co1 [Compound 16]
- IC50 (Aβ42): 20.4 nM
- IC50 (Aβtotal): 19.5 nM
- IC50 (BACE1): 49 nM

SMILES: Cc1nc(C(=O)Nc2ccc(F)c([C@]3(C)Cn4cc(C(F)(F)F)cc4C(N)=N3)c2)c(C(F)(F)F)o1 [Compound 23]
- IC50 (Aβ42): 75.9 nM
- IC50 (Aβtotal): 77.6 nM
- IC50 (BACE1): 182 nM

SMILES: COc1cnc(C(=O)Nc2cccc(C3(C)Cn4cccc4C(N)=N3)c2)cn1 (racemic) [Compound 4, rac-5-methoxy-pyrazine-2-carboxylic acid [3-(1-amino-3-methyl-3,4-dihydro-pyrrolo[1,2-a]pyrazin-3-ye-phenyl]-amide]
- IC50 (Aβ42): 110 nM
- IC50 (Aβtotal): 93.3 nM
- IC50 (BACE1): 234 nM

SMILES: C[C@@]1(c2cc(NC(=O)c3ccc(C#N)cn3)ccc2F)Cn2cc(C(F)(F)F)cc2C(N)=N1 [Compound 9]
- IC50 (Aβ42): 12 nM
- IC50 (Aβtotal): 10.7 nM
- IC50 (BACE1): 33.9 nM

SMILES: CC1(c2cccc(NC(=O)c3ccc(Cl)cn3)c2)Cn2cccc2C(N)=N1 (racemic) [Compound 3, rac-5-chloro-pyridine-2-carboxylic acid[3-(1-amino-3-methyl-3,4-dihydro-pyrrolo[1,2-a]pyrazin-3-ye-phenyl]-amide]
- IC50 (Aβ42): 100 nM
- IC50 (Aβtotal): 95.5 nM
- IC50 (BACE1): 135 nM

SMILES: CC1(c2cccc(-c3cncnc3)c2)Cn2cccc2C(N)=N1 (racemic) [Compound 1, rac-3-methyl-3-(3-pyrimidin-5-yl-phenyl)-3,4-dihydro-pyrrolo[1,2-a]pyrazin-1-ylamine]
- IC50 (Aβ42): 3980 nM
- IC50 (Aβtotal): 3890 nM
- IC50 (BACE1): 12000 nM

SMILES: COCC1(c2cc(NC(=O)c3cnc(OC)cn3)ccc2F)Cn2cc(C(F)(F)F)cc2C(N)=N1 (stereo not drawn) [Compound 24]
- Cellular αlisa assay in SKNBE2 cells Aβ42 pIC50 (Aβ42): 6.30
- Cellular αlisa assay in SKNBE2 cells Aβtotal pIC50 (Aβtotal): 6.35
- IC50 (BACE1): 3160 nM

SMILES: Cc1nc(C(=O)Nc2ccc(F)c([C@]3(C)Cn4cc(C(F)(F)F)cc4C(N)=N3)c2)co1 [Compound 20]
- IC50 (Aβ42): 24 nM
- IC50 (Aβtotal): 23.4 nM
- IC50 (BACE1): 102 nM

SMILES: COc1cnc(C(=O)Nc2ccc(F)c(C3(C(F)F)Cn4cccc4C(N)=N3)c2)cn1 (single isomer, unassigned) [Compound 13]
- Cellular αlisa assay in SKNBE2 cells Aβ42 pIC50 (Aβ42): 5.63
- Cellular αlisa assay in SKNBE2 cells Aβtotal pIC50 (Aβtotal): 5.62
- IC50 (BACE1): 18200 nM

SMILES: C[C@@]1(c2cc(NC(=O)c3ccn(C(F)F)n3)ccc2F)Cn2cc(C(F)(F)F)cc2C(N)=N1 [Compound 10]
- IC50 (Aβ42): 13.5 nM
- IC50 (Aβtotal): 12.6 nM
- IC50 (BACE1): 47.9 nM

SMILES: C[C@@]1(c2cc(NC(=O)c3ccsn3)ccc2F)Cn2cc(C(F)(F)F)cc2C(N)=N1 [Compound 22]
- IC50 (Aβ42): 49 nM
- IC50 (Aβtotal): 47.9 nM
- IC50 (BACE1): 224 nM

SMILES: CC1(c2cccc(-c3cc(Cl)cc(Cl)c3)c2)Cn2cccc2C(N)=N1 (racemic) [Compound 2, rac-3-(3′,5′-dichloro-biphenyl-3-yl)-3-methyl-3,4-dihydro-pyrrolo[1,2-a]pyrazin-1-ylamine]
- IC50 (Aβ42): 4470 nM
- IC50 (Aβtotal): 4270 nM
- IC50 (BACE1): 3720 nM

SMILES: COCC1(c2cc(NC(=O)c3ccn(C(F)F)n3)ccc2F)Cn2cc(C(F)(F)F)cc2C(N)=N1 (single isomer, unassigned) [Compound 31]
- Cellular αlisa assay in SKNBE2 cells Aβ42 pIC50 (Aβ42): <5
- Cellular αlisa assay in SKNBE2 cells Aβtotal pIC50 (Aβtotal): <5
- IC50 (BACE1): > 50100 nM

SMILES: Cc1nc(C(=O)Nc2ccc(F)c([C@]3(C)Cn4cc(C(F)(F)F)cc4C(N)=N3)c2)c(C)o1 [Compound 19]
- IC50 (Aβ42): 66.1 nM
- IC50 (Aβtotal): 63.1 nM
- IC50 (BACE1): 178 nM

SMILES: COc1cnc(C(=O)Nc2ccc(F)c([C@]3(C)Cn4cc(F)cc4C(N)=N3)c2)cn1 [Compound 8, (R)-5-methoxy-pyrazine-2-carboxylic acid [3-(1-amino-7-fluoro-3-methyl-3,4-dihydro-pyrrolo[1,2-a]pyrazin-3-yl)-4-fluoro-phenyl]-amide]
- IC50 (Aβ42): 2.19 nM
- IC50 (Aβtotal): 2.04 nM
- IC50 (BACE1): 33.1 nM

SMILES: Cc1nc(C(=O)Nc2ccc(F)c([C@]3(C)Cn4cc(F)cc4C(N)=N3)c2)c(C(F)(F)F)o1 [Compound 18]
- IC50 (Aβ42): 31.6 nM
- IC50 (Aβtotal): 30.9 nM
- IC50 (BACE1): 83.2 nM

SMILES: COCC1(c2cc(NC(=O)c3cnc(OC)cn3)ccc2F)Cn2cc(C(F)(F)F)cc2C(N)=N1 (stereo not drawn) [Compound 27]
- Cellular αlisa assay in SKNBE2 cells Aβ42 pIC50 (Aβ42): <5
- Cellular αlisa assay in SKNBE2 cells Aβtotal pIC50 (Aβtotal): <5
- IC50 (BACE1): > 50100 nM

SMILES: Cc1nc(C(=O)Nc2ccc(F)c([C@]3(C)Cn4cc(F)cc4C(N)=N3)c2)c(C)o1 [Compound 17]
- IC50 (Aβ42): 32.4 nM
- IC50 (Aβtotal): 33.9 nM
- IC50 (BACE1): 67.6 nM

SMILES: C[C@@]1(c2cc(NC(=O)c3ccc(Cl)cn3)ccc2F)Cn2cccc2C(N)=N1 [Compound 5, (R)-5-chloro-pyridine-2-carboxylic acid [3-(1-amino-3-methyl-3,4-dihydro-pyrrolo[1,2-a]pyrazin-3-yl)-4-fluoro-phenyl]-amide]
- IC50 (Aβ42): 2.95 nM
- IC50 (Aβtotal): 2.82 nM
- IC50 (BACE1): 37.2 nM

SMILES: COCC1(c2cc(NC(=O)c3ccc(F)cn3)ccc2F)Cn2cc(C(F)(F)F)cc2C(N)=N1 (stereo not drawn) [Compound 30]
- Cellular αlisa assay in SKNBE2 cells Aβ42 pIC50 (Aβ42): <5
- Cellular αlisa assay in SKNBE2 cells Aβtotal pIC50 (Aβtotal): <5
- IC50 (BACE1): 34700 nM

SMILES: COCC1(c2cc(NC(=O)c3ccc(F)cn3)ccc2F)Cn2cc(C(F)(F)F)cc2C(N)=N1 (stereo not drawn) [Compound 25]
- Cellular αlisa assay in SKNBE2 cells Aβ42 pIC50 (Aβ42): 6.04
- Cellular αlisa assay in SKNBE2 cells Aβtotal pIC50 (Aβtotal): 6.07
- IC50 (BACE1): 5010 nM

SMILES: COc1cnc(C(=O)Nc2ccc(F)c(C3(C(F)F)Cn4cccc4C(N)=N3)c2)cn1 (racemic) [Compound 11]
- IC50 (Aβ42): 11 nM
- IC50 (Aβtotal): 9.55 nM
- IC50 (BACE1): 107 nM

SMILES: COCC1(c2cc(NC(=O)c3ccn(C(F)F)n3)ccc2F)Cn2cc(C(F)(F)F)cc2C(N)=N1 (single isomer, unassigned) [Compound 32]
- Cellular αlisa assay in SKNBE2 cells Aβ42 pIC50 (Aβ42): 6.54
- Cellular αlisa assay in SKNBE2 cells Aβtotal pIC50 (Aβtotal): 6.53
- IC50 (BACE1): 1740 nM
